Molecules are shown by their SMILES. Read-outs that look alike come from different tables or passages of the source. A value given as a limit tells only on which side of the number the result lay.

Data set [1] deals with T1, [V390I/Y410E/E274V]-CfEcR (Choristoneura fumiferana, UniProt O77240).
T1 construct: assay construct b835
Type of data set: cell-based. Conditions: 3T3 Cells; for RMFI (relative maximum fold induction): relative to GS-E ligand. On the procedure: (§1) Cellular gene switch assays were performed by transiently transfecting the following constructs in mouse embryonic fibroblast cells (NIH3T3). The wild-type D, E and F domains from Choristoneura fumiferana EcR or its V390I/Y410E/E274V mutant were fused to GAL4-DBD and placed under the control of the CMV promoter in the pBIND vector (Promega Corporation, Madison, Wis., USA). The DEF domains of EcRs shown were amplified using primers designed based on 20-25 nt sequences at the 5′ and 3′ ends. Restriction enzyme sites EcoR I/BamH I and Xba I were added to 5′ and 3′ primers respectively. The PCR products were digested with appropriate restriction enzymes and cloned into pBIND vector. The EcR LBDs cloned into pBIND vector were verified by sequencing. A chimeric RXR from Homo sapiens RXRP and Locusta migratoria RXR, fused to VP16-AD and placed under the control of an SV40e promoter, was constructed as previously described (Kumar P & Katakam A in Gene Transfer, Friedmann T and Rossi J, eds, pp. 643-651 (2007), Cold Spring Harbor Laboratory Press, Cold Spring Harbor, N.Y.). The inducible luciferase reporter plasmid pFRLuc (Stratagene Cloning Systems, La Jolla, Calif., USA), contains five copies of the GAL4 response element and a synthetic minimal promoter.
(§2) NIH3T3 cells were maintained at 37′C and 5% CO2 in Dulbecco's modified Eagle's medium (DMEM) supplemented with 10% bovine calf serum, both obtained from Mediatech Inc., Manassas, Va. Cells were planted in a 96-well plate at a density of 2,500 cells/well in 50 μL of growth medium. The following day cells were first treated with 35 μL of serum-free DMEM containing dimethyl sulfoxide (DMSO; control) or a DMSO solution containing ligand. Cells were then transfected with 15 μl of serum-free DMEM containing 0.04 μg of EcR construct, 0.04 ug of RXR construct, and 0.16 μg of luciferase reporter construct per well, using SuperFect™ transfection reagent (Qiagen Inc., Valencia, Calif., USA) according to the manufacturer's instructions. Ligands were tested at 8 doses from 0.01-33 μM and the final DMSO concentration was 0.33% in both control and treatment wells. After a 48 hour post-treatment and transfection incubation, the cells were assayed for luciferase activity using the Bright-Glo™ Luciferase Assay System (Promega Corporation, Madison, Wis., USA) following the manufacturer's instructions. EC50 values were measured minimally in duplicate.
(§3) Luciferase reporter gene expression was measured 48 h after cell treatment using Bright-Glo™ Luciferase Assay System from Promega (E2650). Luminescence was detected at room temperature using a Dynex MLX microtiter plate luminometer.
(§4) Each assay was conducted in two separate wells, and the two values were averaged. Fold inductions were calculated by dividing relative light units (“RLU”) in ligand treated cells with RLU in DMSO treated cells. EC50s were calculated from dose response data using a three-parameter logistic model. Relative Max FI was determined as the maximum fold induction of the tested ligand (an embodiment of the invention) observed at any concentration relative to the maximum fold induction of GS™-E ligand (3,5-dimethyl-benzoic acid N-tert-butyl-N′-(2-ethyl-3-methoxy-benzoyl)-hydrazide) observed at any concentration.

Data set [2] deals with wild-type Choristoneura fumiferana EcR (D, E and F domains) (Choristoneura fumiferana, UniProt O77240). In kind it is cell-based. Conditions: WT-CtEcR, 3T3 Cells; for RMFI (relative maximum fold induction): relative to GS-E ligand. As to the method:
as §1, §2, §3, §4

What is called EC50 is the midpoint of the concentration-response curve. Consider `CCC[C@@H](C1CCCCC1)N(NC(=O)c1ccc(CC)cc1)C(=O)c1cc(C)cc(C)c1` [Example 59, (S)-3,5-Dimethyl-benzoic acid N-(1-cyclohexyl-butyl)-N′-(4-ethyl-benzoyl)-hydrazide], for which, in data set [1] (S), the EC50 is approximately 0.03 µM and the “RMFI (relative maximum fold induction)” value came to 0.35. Also, in data set [2] (S), the EC50 is approximately 1 µM and the “RMFI (relative maximum fold induction)” value is 0.28.
With `CCCC(N(NC(=O)c1cccc(OC)c1)C(=O)c1cc(C)cc(C)c1)C(C)(C)C` (racemic) [rac-9], the EC50 in data set [1] (rac, read-out: EC50) was 0.0071 µM; in data set [2] (rac, read-out: EC50) it was 0.304 µM. The “RMFI (relative maximum fold induction)” value in data set [1] (rac) stood at 0.63; in data set [2] (rac), 0.84.
With `CCCC(N(NC(=O)c1ccc(OC)cc1)C(=O)c1cc(C)cc(C)c1)C(C)(C)C` (racemic) [rac-13], the EC50 in data set [1] (rac, read-out: EC50) was approximately 0.005 µM; in data set [2] (rac, read-out: EC50) it was approximately 0.1 µM. Further, the results for the “RMFI (relative maximum fold induction)” value in data set [1] (rac) and in data set [2] (rac) were 0.71 and 0.54, respectively.
For `CCCC(N(NC(=O)OC(C)(C)C)C(=O)c1cc(C)cc(C)c1)C(C)(C)C` (racemic) [rac-49, rac-N′-(1-tert-Butyl-butyl)-N′-(3,5-dimethyl-benzoyl)-hydrazinecarboxylic acid tert-butyl ester], the EC50 was approximately 4 µM in data set [1] (rac) and more than 33 µM in data set [2] (rac). Moreover, the results for the “RMFI (relative maximum fold induction)” value in data set [1] (rac) and in data set [2] (rac) were 0.50 and 0.02, respectively.
For `CCCC(N(NC(=O)c1c(Cl)cccc1Cl)C(=O)c1cc(C)cc(C)c1)C(C)(C)C` (racemic) [rac-16, rac-3,5-dimethyl-benzoic acid N-(1-tert-butyl-butyl)-N′-(2,6-dichloro-benzoyl)-hydrazide] the same measures were approximately 0.03 µM, approximately 0.3 µM, 0.73 and 0.43.
As to `CCC[C@H](N(NC(=O)c1cccc(OC)c1C)C(=O)c1cc(C)cc(C)c1)C(C)(C)C` [Example 47, (S)-3,5-Dimethyl-benzoic acid N-(1-tert-butyl-butyl)-N′-(3-methoxy-2-methyl-benzoyl)-hydrazide], in data set [1] (S), the EC50 amounted to 0.0563 µM and the “RMFI (relative maximum fold induction)” value was determined as 0.57. Also, in data set [2] (S), the EC50 was approximately 0.2 µM and the “RMFI (relative maximum fold induction)” value was 0.49.
Turning to `C=CCC(C1CCCCC1)N(NC(=O)c1cccc(OC)c1C)C(=O)c1cc(OC)c(C)c(OC)c1` (racemic) [rac-61], the EC50 in data set [1] (rac, read-out: EC50) was 0.521 µM; in data set [2] (rac, read-out: EC50), approximately 3.3 µM. The “RMFI (relative maximum fold induction)” value was found to be 0.39 in data set [1] (rac) and 0.31 in data set [2] (rac).
In the case of `CCCC(N(NC(=O)c1ccc2c(c1C)OCCO2)C(=O)c1cc(C)cc(C)c1)C(C)(C)C` (racemic) [rac-21], the EC50 was approximately 0.0001 µM in data set [1] (rac, read-out: EC50) and 0.00132 µM in data set [2] (rac, read-out: EC50). Further, the entries for the “RMFI (relative maximum fold induction)” value in data set [1] (rac) and in data set [2] (rac) were 0.85 and 0.86, respectively.
Turning to `CCCC(N(NC(=O)c1cc(C)oc1C)C(=O)c1cc(C)cc(C)c1)C(C)(C)C` (racemic) [rac-26], the EC50 was 0.084 µM in data set [1] (rac, read-out: EC50) and 2.15 µM in data set [2] (rac, read-out: EC50). The “RMFI (relative maximum fold induction)” value in data set [1] (rac) is 0.97; in data set [2] (rac) it was 0.76.
On to `CCC[C@@H](N(NC(=O)c1cccnc1Cl)C(=O)c1cc(C)cc(C)c1)C(C)(C)C` [Example 27, (R)-3,5-Dimethyl-benzoic acid N-(1-tert-butyl-butyl)-N′-(2-chloro-pyridine-3-carbonyl)-hydrazide], for which the EC50 in data set [1] (R) was 0.007 µM; in data set [2] (R), 0.0952 µM. Also, the results for the “RMFI (relative maximum fold induction)” value in data set [1] (R) and in data set [2] (R) were 0.73 and 0.70, respectively.
For `C=CC[C@@H](N(NC(=O)OCc1ccccc1)C(=O)c1cc(C)cc(C)c1)C(C)(C)C` [Example 1.5, (R)—N′-(1-tert-butyl-but-3-enyl)-N′-(3,5-dimethyl-benzoyl)-hydrazinecarboxylic acid benzyl ester] the same measures were approximately 2 µM, more than 10 µM, 0.36 and 0.01.
For the compound `CCCC(N(NC(=O)c1ccc2c(c1C)OCO2)C(=O)c1cc(C)cc(C)c1)C(C)(C)C` (racemic) [rac-20], the EC50 in data set [1] (rac, read-out: EC50) was determined as 0.0121 µM; in data set [2] (rac, read-out: EC50), 0.0993 µM. In addition, the “RMFI (relative maximum fold induction)” value was 0.92 in data set [1] (rac) and 0.90 in data set [2] (rac).
Regarding `CCC[C@H](C1CCCCC1)N(NC(=O)c1cccc(OC)c1)C(=O)c1cc(C)cc(C)c1` [Example 54, (R)-3,5-Dimethyl-benzoic acid N-(1-cyclohexyl-butyl)-N′-(3-methoxy-benzoyl)-hydrazide], the EC50 is 0.474 µM in data set [1] (R) and approximately 3.3 µM in data set [2] (R). Moreover, the results for the “RMFI (relative maximum fold induction)” value in data set [1] (R) and in data set [2] (R) were 0.44 and 0.19, respectively.
With `CCC[C@H](C1CCCCC1)N(NC(=O)c1cccc(OC)c1CC)C(=O)c1cc(C)cc(C)c1` [Example 52, (R)-3,5-Dimethyl-benzoic Acid N-(1-cyclohexyl-butyl)-N′-(2-ethyl-3-methoxy-benzoyl)-hydrazide], the figures for the EC50 in data set [1] (R) and in data set [2] (R) were approximately 0.2 µM and 0.22 µM, respectively. The “RMFI (relative maximum fold induction)” value turned out to be 0.64 in data set [1] (R) and 0.38 in data set [2] (R).
In the case of `CCCC(N(NC(=O)c1ccccc1F)C(=O)c1cc(C)cc(C)c1)C(C)(C)C` (racemic) [rac-5], the EC50 was found to be 0.0011 µM in data set [1] (rac, read-out: EC50) and 0.081 µM in data set [2] (rac, read-out: EC50). Further, the “RMFI (relative maximum fold induction)” value in data set [1] (rac) is on record as 0.67; in data set [2] (rac), 0.59.
`Cc1cc(C)cc(C(=O)N(NC(=O)OCc2ccccc2)[C@H](CCCO)C(C)(C)C)c1` [Example 64, (R)—N′-(1-tert-Butyl-4-hydroxy-butyl)-N′-(3,5-dimethyl-benzoyl)-hydrazine carboxylic Acid benzyl ester]: in data set [1] (R), the EC50 is approximately 8 µM and the “RMFI (relative maximum fold induction)” value is recorded as 0.33. Also, in data set [2] (R), the EC50 was more than 33 µM and the “RMFI (relative maximum fold induction)” value was 0.02.
For `CCC[C@H](N(NC(=O)c1ccccc1Br)C(=O)c1cc(C)cc(C)c1)C(C)(C)C` [Example 36, (S)-3,5-Dimethyl-benzoic acid N′-(2-bromo-benzoyl)-N-(1-tert-butyl-butyl)-hydrazide], in data set [1] (S), the EC50 was 0.433 µM and the “RMFI (relative maximum fold induction)” value is 0.36. In addition, in data set [2] (S), the EC50 is approximately 3.3 µM and the “RMFI (relative maximum fold induction)” value is given as 0.11.
For the compound `CCC[C@H](C1CCCCC1)N(NC(=O)c1ccc(CC)cc1)C(=O)c1cc(C)cc(C)c1` [Example 55, (R)-3,5-Dimethyl-benzoic acid N-(1-cyclohexyl-butyl)-N′-(4-ethyl-benzoyl)-hydrazide], in data set [1] (R), the EC50 is approximately 0.07 µM and the “RMFI (relative maximum fold induction)” value was 0.42. In addition, in data set [2] (R), the EC50 was approximately 2 µM and the “RMFI (relative maximum fold induction)” value is on record as 0.26.
As to `CCC[C@H](N(NC(=O)c1ccccc1Cl)C(=O)c1cc(C)cc(C)c1)C(C)(C)C` [Example 35, (S)-3,5-Dimethyl-benzoic acid N-(1-tert-butyl-butyl)-N′-(2-chloro-benzoyl)-hydrazide], in data set [1] (S), the EC50 is approximately 0.02 µM and the “RMFI (relative maximum fold induction)” value is listed as 0.77. In addition, in data set [2] (S), the EC50 was approximately 1 µM and the “RMFI (relative maximum fold induction)” value is on record as 0.44.

The values above are taken from patent US20200270225A1, “Chiral Diacylhydrazine Ligands for Modulating the Expression of Exogenous Genes via an Ecdysone Receptor Complex” (Intrexon Corporation, priority 2007, published 2020).
